{"source": "paper PMC9103758", "about": "(International Journal of Molecular Sciences, 2022)", "key": {"[1]": {"biological_target": "T1, human ANO2 (Homo sapiens, UniProt Q9NQ90)", "T1 construct": "expressed in transfected cells; host or cells: Fisher rat thyroid (FRT) cells", "T1 sequence (Q9NQ90 1-998)": "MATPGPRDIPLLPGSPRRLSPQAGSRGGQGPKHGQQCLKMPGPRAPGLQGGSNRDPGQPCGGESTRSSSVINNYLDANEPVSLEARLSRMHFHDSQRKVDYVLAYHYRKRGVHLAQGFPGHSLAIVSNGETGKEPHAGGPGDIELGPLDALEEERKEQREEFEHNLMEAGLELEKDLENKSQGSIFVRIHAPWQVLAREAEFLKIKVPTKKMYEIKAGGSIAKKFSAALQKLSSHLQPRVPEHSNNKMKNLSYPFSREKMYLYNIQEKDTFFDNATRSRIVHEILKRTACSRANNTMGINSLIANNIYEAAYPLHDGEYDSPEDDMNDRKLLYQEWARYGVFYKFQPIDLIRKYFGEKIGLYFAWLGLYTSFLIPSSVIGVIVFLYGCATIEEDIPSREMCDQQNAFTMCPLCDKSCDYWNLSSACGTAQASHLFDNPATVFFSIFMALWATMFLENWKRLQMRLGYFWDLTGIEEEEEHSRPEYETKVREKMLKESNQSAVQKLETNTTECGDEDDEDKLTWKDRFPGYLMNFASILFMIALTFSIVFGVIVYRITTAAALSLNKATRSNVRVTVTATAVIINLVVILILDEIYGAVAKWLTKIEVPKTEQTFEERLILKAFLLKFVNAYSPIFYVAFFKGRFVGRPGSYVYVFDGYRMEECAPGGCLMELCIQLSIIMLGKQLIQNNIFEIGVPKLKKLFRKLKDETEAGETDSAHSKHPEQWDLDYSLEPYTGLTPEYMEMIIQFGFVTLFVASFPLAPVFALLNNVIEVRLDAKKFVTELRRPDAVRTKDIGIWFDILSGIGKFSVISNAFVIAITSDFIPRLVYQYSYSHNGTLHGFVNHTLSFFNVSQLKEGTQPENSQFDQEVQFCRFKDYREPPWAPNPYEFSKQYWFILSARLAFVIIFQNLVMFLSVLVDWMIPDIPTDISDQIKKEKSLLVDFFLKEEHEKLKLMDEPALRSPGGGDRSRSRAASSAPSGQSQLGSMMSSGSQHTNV", "assay": "YFP fluorescence quenching assay in FRT cells expressing human ANO2", "assay_type": "cell-based", "conditions": "FRT cells expressing human ANO2, up to 10 μM", "experimental": "ANO2 activity was measured using YFP fluorescence quenching assay in FRT cells expressing human ANO2.\n(D) Representative YFP fluorescence traces in FRT cells expressing human ANO2."}, "[2]": {"biological_target": "T2, human CFTR (Homo sapiens, UniProt P13569)", "T2 construct": "expressed in transfected cells; host or cells: Fisher rat thyroid (FRT) cells", "T2 sequence (P13569 whole entry)": "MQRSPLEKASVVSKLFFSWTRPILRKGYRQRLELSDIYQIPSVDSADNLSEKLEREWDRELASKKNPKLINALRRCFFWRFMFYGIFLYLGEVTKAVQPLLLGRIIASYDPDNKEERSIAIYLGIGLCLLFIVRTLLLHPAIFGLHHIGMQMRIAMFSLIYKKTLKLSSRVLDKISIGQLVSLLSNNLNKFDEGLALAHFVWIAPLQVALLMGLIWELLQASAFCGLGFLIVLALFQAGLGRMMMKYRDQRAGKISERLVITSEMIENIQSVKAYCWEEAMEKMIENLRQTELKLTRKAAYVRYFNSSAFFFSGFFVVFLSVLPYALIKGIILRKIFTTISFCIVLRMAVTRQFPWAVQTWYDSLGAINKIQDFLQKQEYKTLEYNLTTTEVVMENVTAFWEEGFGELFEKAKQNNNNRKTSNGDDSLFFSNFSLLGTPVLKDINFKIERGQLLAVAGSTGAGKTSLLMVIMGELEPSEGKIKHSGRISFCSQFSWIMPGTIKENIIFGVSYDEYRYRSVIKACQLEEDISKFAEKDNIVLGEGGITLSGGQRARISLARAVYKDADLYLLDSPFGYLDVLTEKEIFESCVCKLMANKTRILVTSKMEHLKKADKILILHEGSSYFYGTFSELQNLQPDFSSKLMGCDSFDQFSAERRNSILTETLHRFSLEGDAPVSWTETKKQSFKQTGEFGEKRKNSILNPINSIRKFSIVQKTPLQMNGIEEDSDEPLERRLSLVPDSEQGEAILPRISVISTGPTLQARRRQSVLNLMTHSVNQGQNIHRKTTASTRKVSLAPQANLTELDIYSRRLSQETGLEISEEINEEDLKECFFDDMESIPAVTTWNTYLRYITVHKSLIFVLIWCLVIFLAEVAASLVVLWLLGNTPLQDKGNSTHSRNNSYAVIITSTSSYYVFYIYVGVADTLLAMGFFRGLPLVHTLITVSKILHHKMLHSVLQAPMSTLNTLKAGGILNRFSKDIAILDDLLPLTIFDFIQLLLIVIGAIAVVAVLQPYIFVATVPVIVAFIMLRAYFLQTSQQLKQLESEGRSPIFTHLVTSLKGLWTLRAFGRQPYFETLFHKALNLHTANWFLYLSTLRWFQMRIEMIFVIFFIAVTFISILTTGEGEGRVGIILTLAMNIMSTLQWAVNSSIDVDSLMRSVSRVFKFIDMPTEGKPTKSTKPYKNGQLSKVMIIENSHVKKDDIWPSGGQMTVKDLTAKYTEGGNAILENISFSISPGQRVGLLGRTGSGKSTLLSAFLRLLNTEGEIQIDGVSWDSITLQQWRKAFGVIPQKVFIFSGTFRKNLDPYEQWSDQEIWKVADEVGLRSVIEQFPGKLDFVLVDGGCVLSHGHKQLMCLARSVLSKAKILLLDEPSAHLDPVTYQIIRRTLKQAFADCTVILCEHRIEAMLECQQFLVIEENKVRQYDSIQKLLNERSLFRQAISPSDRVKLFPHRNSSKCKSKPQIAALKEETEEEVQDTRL", "assay": "Apical membrane current of CFTR in FRT cells expressing human CFTR", "assay_type": "cell-based", "conditions": "apical membrane current, FRT cells expressing human CFTR, 20 μM forskolin, n = 5; read-out: CFTR chloride channel IC50", "text": "[…]. (C) Summary of dose-response (mean ± S.E., n = 5). […]. (F) Summary of dose−response (mean ± S.E., n = 6).\nSnapwell inserts containing ANO1(abc) or CFTR-expressing FRT cells were mounted in Ussing chambers (Physiological Instruments, San Diego, CA). The basolateral hemichamber was filled with buffer solution (in mM): 120 NaCl, 5 KCl, 1 MgCl2, 1 CaCl2, 10 D-glucose, 2.5 HEPES, and 25 NaHCO3 (pH 7.4). The apical hemichamber was filled with buffer solution (in mM): 60 NaCl, 60 Na-gluconate, 5 KCl, 1 MgCl2, 1 CaCl2, 10 D-glucose, 2.5 HEPES, and 25 NaHCO3 (pH 7.4). FRT cells were bathed for a 10 min stabilization period and gassed with 5% CO2 and 95% O2 at 37 °C. The apical membrane current was recorded with an EVC4000 Multi-Channel V/I Clamp (World Precision Instruments, Sarasota, FL, USA) and a PowerLab 4/35 (AD Instruments, Castle Hill, Australia)."}}, "data": [{"smiles": "COc1cccc(C(c2c(O)c3ccccc3oc2=O)c2c(O)c3ccccc3oc2=O)c1O", "note": "[VI-116, 3,3′-((2-hydroxy-3-methoxyphenyl)methylene)bis(4-hydroxy-2H-chromen-2-one)]", "values": [{"measurement": "effect on ANO2 activity", "setting": "[1]", "value": "minimal effect"}, {"measurement": "IC50", "setting": "[2]", "value": 12.4, "unit": "µM"}]}]}
